The results in this text go back to article PMC8232621, “Antimicrobial Activity of a Library of Thioxanthones and Their Potential as Efflux Pump Inhibitors” (Pharmaceuticals, 2021).

The subject of one series is SE03. Briefly: Real-time ethidium bromide accumulation assay (efflux pump inhibition). Format: cell-based, Salmonella enterica serovar Typhimurium SL1344. The following applies: compounds 50 µM (compound 12 at 17 µM), CCCP 25 µM, minute 60, EB 1 µg/mL. The method, then:
(§1) The relative fluorescence index (RFI) was calculated based on the means of relative fluorescence units, and theses RFIs are depicted in Table 4.
(§2) The compounds were evaluated for their ability to inhibit the efflux of EB, an efflux pump substrate, in Salmonella enterica serovar Typhimurium SE03 and S. aureus 272123 strains, through real-time fluorimetry, monitoring the intracellular accumulation of EB, an efflux pump substrate. This was determined by the automated method using a CLARIOstar Plus plate reader (BMG Labtech, Ortenberg, Germany). Reserpine and CCCP were applied at 25 µM as positive controls, and the solvent DMSO was applied at 1% v/v. The bacterial strains were incubated in an appropriate culture media (TSB–S. aureus 272123; LB-B–SE03) at 37 °C until they reached an optical density (OD) of 0.6 at 600 nm. The culture was centrifuged at 13,000× g for 3 min, and the pellet was washed and resuspended with phosphate buffered saline (PBS, pH 7.4). The suspension was centrifuged again in the same conditions and resuspended in PBS.
(§3) Then, 50 µL of this solution were transferred into a 96-well black microtiter plate (Greiner Bio-One Hungary Kft, Mosonmagyaróvár, Fertősor, Hungary), and 50 µL of bacterial suspension (OD600 = 0.6) were added to each well. The plates were placed into the CLARIOstar plate reader, and the fluorescence was monitored at excitation and emission wavelengths of 530 nm and 600 nm, respectively, every minute for one hour on a real-time basis. From the real-time data, the activity of the compounds, namely the relative fluorescence index (RFI) of the last time point (minute 60) of the EB accumulation assay, was calculated according to the following equation:(1) RFI=RFtreated−RFuntreated/RFuntreated where RFtreated is the relative fluorescence (RF) at the last time point of EB accumulation curve in the presence of the compound, and RFuntreated is the RF at the last time point of the EB accumulation curve of the untreated control, having only the solvent (DMSO) control. The accumulation curves were designed using Microsoft Excel®. The samples were tested in triplicate, and the RFI presented comes from the average of these three values. The accumulation graphs present the mean of the RF at the last time point. The standard deviation (SD) was calculated automatically and included in the RF graphs.

A further series concerns S. aureus 272123. Described as above. On the set-up: key: RFI = (RFtreated − RFuntreated)/RFuntreated at minute 60. In kind it is cell-based, Staphylococcus aureus. The settings on record: compounds 50 µM, reserpine 25 µM, minute 60, EB 1 µg/mL. The method, then:
as §1, §2, §3

For the next series, the system named is E. coli ATCC 25922. Briefly: Antibacterial activity, broth microdilution MIC. Format: cell-based. The settings on record: Escherichia coli, ATCC25922, read-out: Minimum Inhibitory Concentration (MIC). (In general: Dilution methods test growth across graded concentrations, often in twofold steps.)
A further series relates to P. aeruginosa ATCC 27853. Nature of the series: Antibacterial activity, broth microdilution MIC. Format: cell-based. The following applies: Pseudomonas aeruginosa, ATCC27853, read-out: Minimum Inhibitory Concentration (MIC).
The test system of the next series is E. coli SA/2. Nature of the series: Synergy with cefotaxime (antibiotic MIC in presence of compound). In kind it is cell-based. From the text: The referred library of thioxanthones was initially tested for their antimicrobial activity against six bacterial strains: the Gram-negative Escherichia coli ATCC 25922, Pseudomonas aeruginosa ATCC 27853 and Salmonella enterica serovar Typhimurium SL1344 (SE03), with the acrA gene deleted, and the Gram-positive Staphylococcus aureus ATCC 29213, Enterococcus faecalis ATCC 29212 and the methicillin and ofloxacin-resistant clinical isolate S. aureus 272123. For the synergy assay, two clinically relevant isolates were used: the extended-spectrum β-lactamase (ESBL)-producing E. coli SA/2 [23] and the vancomycin-resistant E. faecalis (VRE) B3/101 [23]. The antibiotics used were cefotaxime (CTX) and vancomycin (VAN), respectively.
The combined effect of the compounds and clinically relevant antimicrobial drugs was evaluated by determining the antibiotic’s MIC in the presence of each compound. […] The antibiotic tested was serially diluted, whereas the concentration of each compound was kept fixed. […]

A further series deals with Caco-2 cells. Nature of the series: Cytotoxicity in Caco-2 cells, neutral red (NR) uptake assay. In kind it is cell-based, human. The settings on record: 24 h after exposure. The method, then:
Caco-2 cells were routinely cultured in 75 cm^2 flasks using DMEM with 4.5 g/L glucose supplemented with 10% FBS, 1% NEAA and 1% antibiotic. Cells were maintained at 37 °C, in a 5% CO2 and 95% air atmosphere, and the cell culture medium was changed every 2−3 days. Cultures were passaged weekly by trypsinization (0.25% trypsin/1 mM EDTA). In all experiments, the cells were seeded at a density of 60,000 cells/cm^2 and used three days after seeding, when confluence was reached. The cells used in all experiments were taken between the 55th and 64th passages.
The compounds’ (0−20 μM) cytotoxicity was evaluated by the neutral red (NR) uptake and Sulforhodamine B (SRB) binding assays, 24 h after exposure. Caco-2 cells were seeded onto 96-well plates at a density of 60,000 cells/cm^2 and exposed, after reaching confluence (three days after seeding), to the compounds (0–20 μM), in a fresh cell culture medium. Triton™ X-100 (0.1%) was used as a positive control.
The NR assay is based on the ability of viable cells to incorporate and bind the supravital dye NR into the lysosomes, thus providing a quantitative estimation of the number of viable cells in a culture. Twenty-four hours after exposure to the compounds, the cell culture medium was removed, followed by the addition of fresh cell culture medium containing 50 μg/mL NR, and incubation at 37 °C in a humidified 5% CO2 and 95% air atmosphere, for 90 min. After this incubation period, the cell culture medium was removed, the dye absorbed only by viable cells extracted with absolute ethyl alcohol/distilled water (1:1) with 5% acetic acid, and the absorbance measured at 540 nm in a multiwell plate reader (PowerWaveX BioTek Instruments, VT, USA). The percentage of NR uptake relatively to that of the control cells (0 µM) was used as the cytotoxicity measure. Five independent experiments were performed, in triplicate.

On to `CCCOc1ccc(NCCN(CC)CC)c2c(=O)c3ccccc3sc12` [Compound 2], for which the “RFI ± SD” value is recorded as −0.02 ± 0.04 in the series with SE03 and 0.75 ± 0.08 in the series on S. aureus 272123.

For `CCCOc1ccc(N2CCCCC2)c2c(=O)c3ccccc3sc12` [Compound 3], the “RFI ± SD” value in the series with SE03 came to 0.67 ± 0.01; in the series with S. aureus 272123, 1.50 ± 0.04.

For `CCCOc1ccc(Nc2nc(C)cc(C)n2)c2c(=O)c3ccccc3sc12` [Compound 8, 1-[(4,6-Dimethylpyrimidin-2-yl)amino]-4-propoxy-9H-thioxanthen-9-one], the “RFI ± SD” value in the series on SE03 is reported as 0.74 ± 0.08; with S. aureus 272123 it was 0.24 ± 0.07. In addition, the MIC with E. coli ATCC 25922 and with P. aeruginosa ATCC 27853 was > 100 µM in each case. Moreover, the “decrease in the MIC of CTX” value in the series with E. coli SA/2 amounted to 4 fold.

As for `CCCOc1ccc(N2CCNC(=O)C2)c2c(=O)c3ccccc3sc12` [Compound 9, 4-(9-Oxo-4-propoxy-9H-thioxanthen-1-yl)piperazin-2-one], the entries for the “RFI ± SD” value in the series on SE03 and in the series on S. aureus 272123 were 1.54 ± 0.09 and 0.14 ± 0.02, respectively. For the same molecule, the MIC in the series on E. coli ATCC 25922 and with P. aeruginosa ATCC 27853 was > 100 µM throughout.

On to `CCCOc1ccc(NCCO)c2c(=O)c3ccccc3sc12` [Compound 10, 1-[(2-Hydroxyethyl)amino]-4-propoxy-9H-thioxanthen-9-one], for which the results for the “RFI ± SD” value in the series on SE03 and in the series with S. aureus 272123 were 6.00 ± 0.80 and 4.71 ± 0.78, respectively. Also, the MIC in the series on E. coli ATCC 25922 and in the series on P. aeruginosa ATCC 27853 was > 100 µM throughout. Moreover, the “decrease in the MIC of CTX” value with E. coli SA/2 turned out to be 4 fold.

Consider `CCCOc1ccc(NCCN2CCOCC2)c2c(=O)c3ccccc3sc12` [Compound 11, 1-[(2-Morpholinoethyl)amino]-4-propoxy-9H-thioxanthen-9-one], for which the entries for the “RFI ± SD” value in the series on SE03 and in the series with S. aureus 272123 were 1.37 ± 0.054 and 0.89 ± 0.06, respectively. The MIC with E. coli ATCC 25922 and in the series with P. aeruginosa ATCC 27853 was > 100 µM in each case.

In the case of `CCCOc1ccc(NS(=O)(=O)c2ccc(C(=O)O)cc2)c2c(=O)c3ccccc3sc12` [Compound 12, 4-[N-(9-Oxo-4-propoxy-9H-thioxanthen-1-yl)sulfamoyl]benzoic acid], the “RFI ± SD” value with SE03 is −0.21 ± 0.07; in the series with S. aureus 272123, 0.29 ± 0.19. Besides, the MIC in the series with E. coli ATCC 25922 and with P. aeruginosa ATCC 27853 was > 100 µM each time. Moreover, the “decrease in the MIC of CTX” value in the series with E. coli SA/2 is listed as 16 fold.

In the case of `CCCOc1ccc(NS(=O)(=O)c2ccc(N)cc2)c2c(=O)c3ccccc3sc12` [Compound 13, 4-Amino-N-(9-oxo-4-propoxy-9H-thioxanthen-1-yl)benzenesulfonamide], the results for the “RFI ± SD” value in the series on SE03 and in the series on S. aureus 272123 were 1.23 ± 0.18 and −0.18 ± 0.05, respectively. For the same molecule, the “NR uptake (relative to control cells)” value is recorded as 95.5% in the series with Caco-2 cells (10 µM) and “no significant effect” in the series with Caco-2 cells (20 µM). For the same molecule, the MIC in the series with E. coli ATCC 25922 and in the series on P. aeruginosa ATCC 27853 was > 100 µM throughout.

As for `CCCOc1ccc(Br)c2c(=O)c3ccccc3sc12` [Compound 14, 1-Bromo-4-propoxy-9H-thioxanthen-9-one], the entries for the “RFI ± SD” value in the series with SE03 and in the series with S. aureus 272123 were 0.87 ± 0.11 and 1.13 ± 0.13, respectively. In addition, the MIC with E. coli ATCC 25922 and in the series with P. aeruginosa ATCC 27853 was > 100 µM throughout.

For the molecule `CCCOc1ccc2ncnc3c2c1Sc1ccccc1-3` [Compound 15], the “RFI ± SD” value in the series on SE03 was 0.54 ± 0.11; with S. aureus 272123 it was −0.07 ± 0.50. The “NR uptake (relative to control cells)” value in the series with Caco-2 cells (20 µM) amounted to 92.2%. The MIC in the series with E. coli ATCC 25922 and with P. aeruginosa ATCC 27853 was > 100 µM throughout.

With `CCCOc1ccc2nc(N)nc3c2c1Sc1ccccc1-3` [Compound 16], the figures for the “RFI ± SD” value in the series on SE03 and with S. aureus 272123 were 7.52 ± 0.01 and 0.96 ± 0.27, respectively. Moreover, in the series on Caco-2 cells (20 µM), the “NR uptake (relative to control cells)” value worked out at 94.1%. Further, the MIC in the series on E. coli ATCC 25922 and in the series with P. aeruginosa ATCC 27853 was > 100 µM in each case.

As for `CCCOc1ccc2nc(NCc3ccccc3Cl)nc3c2c1Sc1ccccc1-3` [Compound 17], the “RFI ± SD” value is 25.51 ± 2.93 with SE03 and 9.69 ± 0.95 in the series with S. aureus 272123. The “NR uptake (relative to control cells)” value in the series with Caco-2 cells (20 µM) is given as 95.5%. The MIC with E. coli ATCC 25922 and in the series on P. aeruginosa ATCC 27853 was > 100 µM throughout.

For `CCCOc1ccc2c3c(n/c(=N\c4ccccc4C)n2-c2ccccc2C)-c2ccccc2Sc13` [Compound 18], the entries for the “RFI ± SD” value in the series with SE03 and in the series with S. aureus 272123 were 0.20 ± 0.02 and 0.20 ± 0.03, respectively. Besides, the MIC with E. coli ATCC 25922 and with P. aeruginosa ATCC 27853 was > 100 µM throughout. Also, the “decrease in the MIC of CTX” value in the series on E. coli SA/2 amounted to 4 fold.
